Source: patent publication US20250251402A1, “METHODS OF DETECTING MOLECULAR AGGREGATES USING IMAGE CORRELATION SPECTROSCOPY (ICS)” (The General Hospital Corporation, priority 2022, published 2025)

Legend:
Assay type in all cases: cell-based
53BP1 = test: Autocorrelation (ICS DA) of 53BP1 in phenotypic screen images, cell line not specified; conditions: at least one cell line of A549, WPMY-1, HepG2
Protocol: Images from the original study (8) were accessed through the Image Data Resource (32) API on the Open Microscopy environment. Nuclei were segmented using StarDist (33) on the BFP channel image. Segmented nuclei were then analyzed by image correlation spectroscopy autocorrelation (34) in the TP53BP1 channel and the average degree of aggregation (DA) was calculated. […] Active compounds were defined as having significant (p<0.05) non-zero linear regressions, either negative or positive. The activity score was determine by summing the direction of each active compound and dividing by the total number of compounds in the MoA.
(§1) We accessed the original phenotypic screen (8) images through the IDR API on the Open Microscopy server. The screen contained three different cell lines that had endogenous TP53BP1 labeled GFP as a marker protein. We first identified all the images from these three cell lines (>60,000 images in total), then segmented the nuclei of each cell using the BFP channel image. Segmented nuclear regions were then transferred to the TP53BP1 image and image autocorrelation was performed on each nucleus. The degree of aggregation (DA, a measurement of fluorophore clustering) for each nucleus was then averaged to produce an overall image 53BP1 DA that corresponded to the compound and compound concentration. The dataset contained repeats of four different doses for each compound. The activity of each compound in each cell line was then determined by fitting a linear regression to the DA as a function of compound concentration. The slope and significance versus the null hypothesis (slope equal to zero) of DA vs. concentration was then determined. Active compounds were defined as those having a significant (p<0.05) slope of DA vs. concentration.
53BP1 DA is a measure of protein labeled fluorophore clustering within the nucleus. […] Yet, given the highly characterized role of 53BP1 in the DNA damage response (9), recruitment to DNA damage response foci is likely the most prominent driver of measured activity.

A549 cells = test: Autocorrelation (ICS DA) of 53BP1 in phenotypic screen images, A549
Protocol: (§2) Images from the original study (8) were accessed through the Image Data Resource (32) API on the Open Microscopy environment. Nuclei were segmented using StarDist (33) on the BFP channel image. Segmented nuclei were then analyzed by image correlation spectroscopy autocorrelation (34) in the TP53BP1 channel and the average degree of aggregation (DA) was calculated.
as §1, with “determined.” for “determined. Active compounds were defined as those having a significant (p<0.05) slope of DA vs. concentration.”
(§3) 53BP1 DA is a measure of protein labeled fluorophore clustering within the nucleus. […] Increases in 53BP1 recruitment can occur either through induction of DNA damage or altered repair pathways, such as shifting the response from homologous recombination to non-homologous end joining.

HepG2 cells = test: Autocorrelation (ICS DA) of 53BP1 in phenotypic screen images, HepG2
Protocol: as §2
as §1, with “determined.” for “determined. Active compounds were defined as those having a significant (p<0.05) slope of DA vs. concentration.”
as §3

SKOV3 cells = test: γH2AX immunofluorescence in SKOV3 cells (intensity, Imaris Spots, ICS TNoP and DA)
Source text: (§4) For the ICS analysis, nuclei were segmented from the DAPI channel using a watershed approach in MATLAB. Briefly, we applied a difference of gaussians for size-based feature extraction of nuclei in the image (upper gaussian σ=100, lower gaussian σ=2-5 dependent on cell size). This feature enhanced image was then binarized to create a primary mask (using the function imbinarize) and connected components under 100 pixels were removed (using the function bwareaopen). We then created a distance transform of the resulting binary image (using the function bwdist). Seed points were determined by finding the regional maximum of a gaussian filtered image, with a gaussian σ of appropriate size for seed point detection (σ×7 or 8 dependent on cell size). The seed points were applied to the distance transform, and we applied the watershed function to the resulting image to obtain masks for each nucleus (extracted using the function regionprops).
(§5) Using the nucleus masks, we performed ICS analysis on the antibody-stained channel, within size limitations for a nucleus (objects >400 and <2400 pixels). Intensity, DA and TNOP were calculated for each cell. In this analysis, since the ROI is defined by the nucleus mask (segmented from nuclear signal using DAPI staining), TNoP represents the total number of particles per nucleus, with the image area being the number of pixels in each nuclear mask.
(§6) Measurements across experiments were normalized by the control in each dataset. […] Data were plotted in Prism and statistical analysis was performed in Excel.
(§7) Imaris spots analysis were performed with Imaris 9.8 with background subtraction, using a spot size of 1 μm that was measured from the smallest distinguishable foci from the control image. For images with multiple nuclei, ImarisCell was used with the detection type “cell and vesicles”, where the nucleus in the DAPI channel was modelled as the “cell” and antibody-labeled foci were modelled as the “vesicles”. This enabled us to count the number of foci per nucleus for multiple cells. In each dataset, the automatic “quality” threshold was determined from the control image and the same threshold was used for every image in the dataset to be able to compare the outputs across datasets. Similar to the ICS analysis, only cells with an area between 400-2400 voxels were included for analysis.
(§8) All chemicals were purchased from Sigma unless otherwise noted. All drugs were purchased from Selleck Chemicals. Cells were cultured in media supplemented with 10% fetal bovine serum and 1% penicillin/streptomycin. OVCA429 were originally obtained from Dr. Michael Birrer and cultured in DMEM. SKOV3 was obtained from ATCC and cultured in RPMI. For MMS treatment, cells were incubated for 6 hours before fixation with 4% formaldehyde, whereas for treatment with PARP inhibitors, cells were incubated for 24 hours before fixation.
(§9) Cells were plated in 8-well slides (Fisher) to achieve 50% confluence overnight. Cells were then treated and fixed with 4% formaldehyde in PBS at room temperature for 10 minutes. Antibody staining was performed according to the manufacturers protocol (Cell Signaling Technologies or Abcam). Primary antibodies used were γH2AX (CST, #2577), RPA1 (CST, #2267) and RAD51 (Abcam, 63801), with Anti-rabbit IgG Fab2 Alexa Fluor 647 (CST, #4414) as the secondary fluorescent antibody. After antibody labeling, prolong gold with DAPI (CST) was added and samples were stored for up to 1 week prior to imaging. Confocal imaging was performed on an Olympus FV1000 multiphoton/confocal microscope using an Olympus XLUMPlanFL N 20× objective, NA 1.00 with chromatic correction, and 3× digital zoom. DAPI was excited with a 405 nm laser, while Alexa Fluor 647 was excited with a 635 nm laser. A multiband (DM 405/488/561/633 nm) dichroic mirror was used to direct the excitation laser and collect emission. […]

HCC1937 cells = test: 53BP1-mApple condensate anisotropy (homo-FRET) and intensity in HCC1937 cells
Protocol: All fluorescence imaging was performed on an Olympus FV1000 multiphoton/confocal microscope. Anisotropy measurements were performed through custom modifications to the imaging system as previously described (30). Briefly, linear polarization of two photon excitation light at 910 nm (MaiTai femtosecond laser, Spectra Physics) was controlled by a glan-thompson prism and half wave plate. […] was collected in orthogonal orientations through two detectors, parallel and perpendicular to excitation polarization, through a polarizing beam splitter that replaced a dichroic mirror in the emission filter cube. The alignment and detector gain and noise were validated each imaging session through measurements of a standard slide. Images were taken with an Olympus 25× XLPlan N objective, NA 1.05, and 3× digital zoom. Confocal imaging was performed with an Olympus XLUMPlanFL N 20× objective, NA 1.00 with chromatic correction, and 3× digital zoom.
Cells were grown on 12 mm round, uncoated, sterilized glass coverslips in 24-well plates for 24 hours. Cells were treated with PARPi and 100 μM TMZ for 1 hour or 10 nM GMX1778 overnight followed by 100 μM TMZ for 1 hour. TMZ was added to stimulate new DNA damage induced condensates in the presence of PARPi or NAD″ depletion. Cells were then transferred to the microscope for anisotropy imaging. Images were analyzed in MATLAB. Nuclei were segmented through intensity thresholding and condensates were segmented through further intensity thresholding with a higher threshold. Values of segmented nuclei and condensates were determined through the regionprops function. Segmentation was corrected through area restrictions to ensure that regions of interest were isolated condensates. The thresholding parameters were consistent throughout experiments. The average intensity and anisotropy of each segmented nuclei or condensate was then calculated. Data were plotted in Prism and analysis performed in Prism or Excel.

OVCA429 cells = test: γH2AX immunofluorescence in OVCA429 cells (intensity, Imaris Spots, ICS TNoP and DA)
Source text: as §4, §5, §6, §7, §8, §9

WPMY-1 cells = test: Autocorrelation (ICS DA) of 53BP1 in phenotypic screen images, WPMY-1
Protocol: as §2
as §1, with “determined.” for “determined. Active compounds were defined as those having a significant (p<0.05) slope of DA vs. concentration.”
as §3

HT1080 cells = test: γH2AX immunofluorescence ICS DA and nuclear intensity in HT1080 cells; conditions: HT1080, 10 nM GMX1778 for 24 hours vs control
Protocol: Cells were plated in 8-well […] slides (Thermo or Ibidi) to achieve 50% confluence overnight. Cells were then treated and fixed with 4% paraformaldehyde in PBS at room temperature for 10 minutes. Antibody staining was performed according to the manufacturers protocol. Following fluorescent secondary antibody labeling, prolong gold with DAPI (Cell Signaling Technologies) was added and samples were stored for up to 1 week prior to imaging.
ICS analysis was performed in MATLAB as previously described (41). Briefly, nuclei were segmented from the DAPI channel with the MATLAB function, imbinarize, converting the greyscale image to a binary dependent on an automatically defined threshold. The MATLAB function, regionprops, was used to identify single nuclei as objects. Each nucleus was used as a mask to perform ICS analysis on the antibody-stained channel, within size limitations for a nucleus (objects >400 and <3000 pixels). To ensure the analysis of antibody stained nuclei, nuclei under an average intensity of 200 au after background subtraction were excluded. The spatial autocorrelation functions were calculated using Fourier methods, then fit to a 2D Gaussian using a nonlinear least-squares algorithm (41). Using the outputs of the fitting, the mean number of independent emitting fluorescent entities per focal spot area and subsequently the DA were determined (59). DA measurements across experiments were normalized by the control in each dataset. […] Any DA values exceeding 3 standard deviations from the mean were defined as incorrectly segmented and removed. Data were plotted in Prism and analysis performed in Prism or Excel.

[1] = HCC1937, 10 nM GMX1778 overnight then 100 μM TMZ 1 hour

## COc1ccc(C(=O)C2CCN(CC(=O)N(Cc3nc4c(c(=O)[nH]3)COCC4)CC3CC3)CC2)cc1 [NVP-TNKS656]
53BP1
  53BP1 DA vs. concentration regression (53BP1 recruitment): increased 53BP1 recruitment

## COc1ccccc1S(=O)(=O)Nc1ccc2c(c1)CN(C)C(=O)N2 [PFI-1]
A549 cells
  53BP1 DA vs. concentration regression (53BP1 recruitment): strong positive activity
HepG2 cells
  53BP1 DA vs. concentration regression (53BP1 recruitment): strong positive activity

## O=C(c1cc(Cc2n[nH]c(=O)c3ccccc23)ccc1F)N1CCN(C(=O)C2CC2)CC1 [olaparib]
SKOV3 cells; SKOV3
  ICS TNoP of γH2AX, dose dependence: slight TNOP dose dependence
SKOV3 cells; SKOV3, 100 μM olaparib vs 10 μM dose
  Number of γH2AX spots determined by Imaris: not significant compared to the 10 μM dose
HCC1937 cells; HCC1937, 1 μM PARPi and 100 μM TMZ for 1 hour
  53BP1-mApple condensate anisotropy vs control: significantly lower condensate anisotropy compared to control
OVCA429 cells; OVCA429
  ICS DA of γH2AX, dose dependence: full dose dependent increases in γH2AX clustering
  Imaris Spots analysis of γH2AX, dose dependence: able to capture olaparib dose dependence
OVCA429 cells; OVCA429, PARP inhibitors
  γH2AX intensity, dose dependence: did not show a dose dependence

## O=c1[nH]cnc2ccccc12 [4-HQN]
53BP1
  53BP1 DA vs. concentration regression (53BP1 recruitment): increased 53BP1 recruitment

## CCCOc1ccc(CCc2nc3cc(-c4c(C)noc4C)ccc3n2CCN2CCOCC2)cc1 [PF CBP1]
WPMY-1 cells
  53BP1 DA vs. concentration regression (53BP1 recruitment): strong activity

## Cc1nc(NC(=O)N2CCC[C@H]2C(N)=O)sc1-c1csc(C(C)(C)C)n1 [A66]
WPMY-1 cells
  53BP1 DA vs. concentration regression (53BP1 recruitment): strong inducers of 53BP1 recruitment

## O=C(CCCCCCC(=O)Nc1ccccc1)NO [SAHA]
WPMY-1 cells
  53BP1 DA vs. concentration regression (53BP1 recruitment): strong inducers of 53BP1 recruitment

## S=P(N1CC1)(N1CC1)N1CC1 [thiotepa]
WPMY-1 cells
  53BP1 DA vs. concentration regression (53BP1 recruitment): strong inducers of 53BP1 recruitment

## Cc1cc(C)c(C)c(S(=O)(=O)Nc2ccc(N3CC[C@H](C(=O)O)C3)c3ccccc23)c1C [RA839]
WPMY-1 cells
  53BP1 DA vs. concentration regression (53BP1 recruitment): two of the strongest 53BP1 recruitment-reducing compounds

## NC(=O)c1cccc(N)c1 [3-aminobenzamide]
A549 cells
  53BP1 DA vs. concentration regression (53BP1 recruitment): reduced 53BP1 recruitment
HepG2 cells
  53BP1 DA vs. concentration regression (53BP1 recruitment): reduced 53BP1 recruitment
WPMY-1 cells
  53BP1 DA vs. concentration regression (53BP1 recruitment): reduced 53BP1 recruitment

## Cc1nc2c(O)cccc2c(=O)[nH]1 [NU 1025]
53BP1
  53BP1 DA vs. concentration regression (53BP1 recruitment): increased 53BP1 recruitment

## N#CN=C(NCCCCCCOc1ccc(Cl)cc1)Nc1ccncc1 [GMX1778]
HT1080 cells
  γH2AX ICS DA: significantly increased
  γH2AX levels (nuclear intensity): no significant difference
HCC1937 cells; [1]
  53BP1-mApple condensate anisotropy vs control: significantly lowered condensate anisotropy
  53BP1-mApple condensate intensity vs control: without impacting condensate intensity

## Cc1c(-c2cnccn2)ssc1=S [oltipraz]
WPMY-1 cells
  53BP1 DA vs. concentration regression (53BP1 recruitment): two of the strongest 53BP1 recruitment-reducing compounds

## NC(=O)c1cccc(-c2cc(Nc3ccc(OC(F)(F)F)cc3)ncn2)c1 [GNF 2]
A549 cells
  53BP1 DA vs. concentration regression (53BP1 recruitment): reduced 53BP1 recruitment
HepG2 cells
  53BP1 DA vs. concentration regression (53BP1 recruitment): reduced 53BP1 recruitment
